This test concerns the target T1, RIPK1 (Homo sapiens, UniProt Q13546).
T1 construct: recombinant GST-RIPK1 kinase domain (residues 1-327) enzyme produced from baculovirus-transfected Sf21 cells; host or cells: baculovirus-transfected Sf21 insect cells
T1 sequence (Q13546 1-327): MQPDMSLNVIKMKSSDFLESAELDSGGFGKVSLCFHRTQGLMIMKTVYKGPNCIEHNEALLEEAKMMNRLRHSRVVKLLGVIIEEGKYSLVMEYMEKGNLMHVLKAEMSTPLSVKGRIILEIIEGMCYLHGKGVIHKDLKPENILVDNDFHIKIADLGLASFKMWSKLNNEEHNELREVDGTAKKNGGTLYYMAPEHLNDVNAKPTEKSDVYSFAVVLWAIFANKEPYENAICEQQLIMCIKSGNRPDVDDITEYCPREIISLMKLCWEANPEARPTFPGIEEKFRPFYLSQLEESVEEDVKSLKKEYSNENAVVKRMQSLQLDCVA
Description: RIPK1-ADP-Glo enzymatic assay. Conditions: ADP-Glo luminescent ADP detection; 25 nM GST-RIPK1 kinase domain (residues 1-327), 300 μM ATP, dephosphorylated-MBP substrate; 30 min pre-incubation, 150 min reaction. In kind it is biochemical. The procedure:
RIPK1-ADP-Glo Enzymatic Assay
The enzymatic activity of RIPK1 is measured using an assay derived from ADP-Glo kit (Promega™), which provides a luminescent-based ADP detection system. Specifically, the ADP generated by RIPK1 kinase is proportionally detected as luminescent signals in a homogenous fashion. In this context, the assessment of the inhibitory effect of small molecules (EC50) is measured by the effectiveness of the compounds to inhibit the ATP to ADP conversion by RIPK1.
In this assay, the potency (EC50) of each compound was determined from a ten-point (1:3 serial dilution; top compound concentration of 100000 nM) titration curve using the following outlined procedure. To each well of a white ProxiPlus 384 well-plate, 30 nL of compound (1% DMSO in final assay volume of 3 μL) was dispensed, followed by the addition of 2 μL of 1×assay buffer (25 mM Hepes 7.3, 20 mM MgCl2, 50 mM NaCl, 1 mM DTT, 0.005% Tween20, and 0.02% BSA) containing 37.5 nM of GST-RIPK1 (recombinant GST-RIPK1 kinase domain (residues 1-327) enzyme produced from baculovirus-transfected Sf21 cells: MW=62 kDa). Plates were placed in an ambient temperature humidified chamber for a 30 minutes pre-incubation with compound. Subsequently, each reaction was initiated by the addition of 1 μL 1×assay buffer containing 900 μM ATP and […] dephosphorylated-MBP substrate. The final reaction in each well of 3 μL consists of 25 nM of GST-RIPK1, 300 μM ATP, and 3 μM dephosphorylated-MBP. Kinase reactions were allowed to proceed for 150 minutes prior to adding ADP-Glo reagents per Promega's outlined kit protocol. Dose-response curves were generated by plotting percent effect (% product conversion; Y-axis) vs. Log10 compound concentrations (X-axis). EC50 values were calculated using a non-linear regression, four-parameters sigmoidal dose-response model.
A general note: In ADP-Glo the light output rises with the ADP produced.

Counter-ions that a name gives are not always drawn.

This is an account of results in US20230265094A1, “RIPK1 INHIBITORS AND METHODS OF USE” (Merck Sharp & Dohme LLC, priority 2020, published 2023).

As usually defined, the EC50 is the concentration needed to bring the measured effect to its halfway point. High values mean weaker potency, low ones greater potency. Take `CC1(Oc2ccccc2)CN(C(=O)N2N=CCC2c2cc(F)cc(F)c2)C1` (racemic) [Example 1.2, (R and S)-(5-(3,5-difluorophenyl)-4,5-dihydro-1H-pyrazol-1-yl)(3-methyl-3-phenoxyazetidin-1-yl)methanone, TFA salt]: the EC50 worked out at 9.7 nM.
Under `N#Cc1cc(OC2CN(C(=O)N3N=CCC3c3cc(F)cc(F)c3)C2)ncn1` (racemic) [Example 1.5, (R and S)-6-((1-(5-(3,5-difluorophenyl)-4,5-dihydro-1H-pyrazole-1-carbonyl)azetidin-3-yl)oxy)pyrimidine-4-carbonitrile, TFA salt] stands 140 nM; under `C[C@@H]1[C@H](Oc2ccccc2)CN1C(=O)N1N=CC[C@H]1c1cc(F)cc(F)c1` (racemic) [Example 1.11, ((S)-5-(3,5-difluorophenyl)-4,5-dihydro-1H-pyrazol-1-yl)((2R,3R and 2S,3S)-2-methyl-3-phenoxyazetidin-1-yl)methanone, TFA salt], 11.8 nM; under `O=C(N1CCC1c1ccccc1F)N1N=CC[C@H]1c1cc(F)cc(F)c1` (mixture of isomers) [Example 1.21, ((S)-5-(3,5-difluorophenyl)-4,5-dihydro-1H-pyrazol-1-yl)((R and S)-2-(2-fluorophenyl)azetidin-1-yl)methanone], 27.6 nM.
Under `O=C(N1CCC1Cc1ccccc1)N1N=CC[C@H]1c1cc(F)cc(F)c1` (mixture of isomers) [Example 1.22, ((S)-2-benzylazetidin-1-yl)((R and S)-5-(3,5-difluorophenyl)-4,5-dihydro-1H-pyrazol-1-yl)methanone] stands 73.6 nM.
`COC(=O)C1CC12CN(C(=O)N1N=CC[C@H]1c1cc(F)cc(F)c1)C2` (mixture of isomers) [Example 1.47, methyl (R and S)-5-((S)-5-(3,5-difluorophenyl)-4,5-dihydro-1H-pyrazole-1-carbonyl)-5-azaspiro[2.3]hexane-1-carboxylate]: the EC50 came out at 195 nM.
In turn, `N#Cc1cc(OC2CN(C(=O)N3N=CC[C@H]3c3cc(F)cc(F)c3)C2)ncn1` (single isomer, unassigned) [Example 1.6] showed an EC50 of 83 nM.
For the molecule `C[C@H]1[C@H](Oc2ccccc2)CN1C(=O)N1N=CC[C@H]1c1cc(F)cc(F)c1` (single isomer, unassigned) [Example 1.9, ((S)-5-(3,5-difluorophenyl)-4,5-dihydro-1H-pyrazol-1-yl)((2S,3R or 2R,3S)-2-methyl-3-phenoxyazetidin-1-yl)methanone, TFA salt], the EC50 amounted to 104 nM.
Molecule `C[C@@H]1[C@@H](Oc2ccccc2)CN1C(=O)N1N=CC[C@H]1c1cc(F)cc(F)c1` (single isomer, unassigned) [Example 1.10, ((S)-5-(3,5-difluorophenyl)-4,5-dihydro-1H-pyrazol-1-yl)((2R,3S or 2S,3R)-2-methyl-3-phenoxyazetidin-1-yl)methanone, TFA salt] showed an EC50 of 10.5 nM.
Under `C[C@@H]1[C@H](Oc2ccccc2)CN1C(=O)N1N=CC[C@H]1c1cc(F)cc(F)c1` (single isomer, unassigned) [Example 1.12, ((S)-5-(3,5-difluorophenyl)-4,5-dihydro-1H-pyrazol-1-yl)((2R,3R or 2S,3S)-2-methyl-3-phenoxyazetidin-1-yl)methanone, TFA salt] stands 8.8 nM; under `C[C@H]1[C@@H](Oc2ccccc2)CN1C(=O)N1N=CC[C@H]1c1cc(F)cc(F)c1` (single isomer, unassigned) [Example 1.13, ((S)-5-(3,5-difluorophenyl)-4,5-dihydro-1H-pyrazol-1-yl)((2S,3S or 2R,3R)-2-methyl-3-phenoxyazetidin-1-yl)methanone, TFA salt], 7.6 nM.
Under `O=C(N1CC(Oc2ccccc2)C1)N1N=CC[C@@H]1c1ccccc1` (single isomer, unassigned) [Example 2.4] stands 5000 nM.
For the molecule `O=C(N1CC(Oc2ccccc2)C1)N1N=CC[C@H]1c1ccccc1` (single isomer, unassigned) [Example 2.5], the EC50 is 0.5 nM.
Under `CC1(Oc2ccc(F)cc2)CN(C(=O)N2N=CC[C@H]2c2cncc(F)c2)C1` (single isomer, unassigned) [Example 2.31] stands 17.1 nM; under `Cc1ncc([C@@H]2CC=NN2C(=O)N2CC(Oc3ccc(F)cc3)C2)cc1F` (single isomer, unassigned) [Example 2.40], 14.7 nM; under `CC(c1ccccc1)C1CN(C(=O)N2N=CC[C@H]2c2cc(F)cc(F)c2)C1` (single isomer, unassigned) [Example 2.42, ((S)-5-(3,5-difluorophenyl)-4,5-dihydro-1H-pyrazol-1-yl)(3-((R or S)-1-phenylethyl)azetidin-1-yl)methanone], 18.6 nM.
Under `CC(c1ccccc1)C1CN(C(=O)N2N=CC[C@H]2c2cc(F)cc(F)c2)C1` (single isomer, unassigned) [Example 2.43, ((S)-5-(3,5-difluorophenyl)-4,5-dihydro-1H-pyrazol-1-yl)(3-((S or R)-1-phenylethyl)azetidin-1-yl)methanone] stands 46.7 nM.
Under `CC1(Oc2ccccc2)CN(C(=O)N2N=CC[C@H]2c2cc(F)cc(F)c2)C1` [Example 1.1, (S)-(5-(3,5-difluorophenyl)-4,5-dihydro-1H-pyrazol-1-yl)(3-methyl-3-phenoxyazetidin-1-yl)methanone, TFA salt] stands 2.5 nM; under `O=C(N1CC(Oc2ccccc2)C1)N1N=CC[C@@H]1c1cc(F)cc(F)c1` [Example 1.4, (R)-(5-(3,5-difluorophenyl)-4,5-dihydro-1H-pyrazol-1-yl)(3-phenoxyazetidin-1-yl)methanone, TFA salt], 600 nM; under `O=C(N1CC(Oc2cccnc2)C1)N1N=CC[C@H]1c1cc(F)cc(F)c1` [Example 1.7, (S)-(5-(3,5-difluorophenyl)-4,5-dihydro-1H-pyrazol-1-yl)(3-(pyridin-3-yloxy)azetidin-1-yl)methanone, TFA salt], 12.8 nM.
With `O=C(N1CC(Oc2ccncc2)C1)N1N=CC[C@H]1c1cc(F)cc(F)c1` [Example 1.8, (S)-(5-(3,5-difluorophenyl)-4,5-dihydro-1H-pyrazol-1-yl)(3-(pyridin-4-yloxy)azetidin-1-yl)methanone, TFA salt], it took 8.7 nM to reach a half-maximal effect (EC50).
Under `O=C(N1CC(Cc2ccccc2)C1)N1N=CC[C@H]1c1cc(F)cc(F)c1` [Example 1.14, (S)-(3-benzylazetidin-1-yl)(5-(3,5-difluorophenyl)-4,5-dihydro-1H-pyrazol-1-yl)methanone, TFA salt] stands 6.1 nM.
In turn, `O=C(N1CC(O)C1)N1N=CC[C@H]1c1cc(F)cc(F)c1` [Example 1.15, (S)-(5-(3,5-difluorophenyl)-4,5-dihydro-1H-pyrazol-1-yl)(3-hydroxyazetidin-1-yl)methanone] displayed an EC50 of 3680 nM.
For the molecule `O=C(N1CC(OC2CCCC2)C1)N1N=CC[C@H]1c1cc(F)cc(F)c1` [Example 1.17, (S)-(3-(cyclopentyloxy)azetidin-1-yl)(5-(3,5-difluorophenyl)-4,5-dihydro-1H-pyrazol-1-yl)methanone, TFA salt], the EC50 came out at 11.5 nM.
Under `O=C(N1CC(c2ncccn2)C1)N1N=CC[C@H]1c1cc(F)cc(F)c1` [Example 1.18, (S)-(5-(3,5-difluorophenyl)-4,5-dihydro-1H-pyrazol-1-yl)(3-(pyrimidin-2-yl)azetidin-1-yl)methanone] stands 325 nM.
Turning to `O=C(N1CC2(C1)CN(c1ccccn1)C2)N1N=CC[C@H]1c1cc(F)cc(F)c1` [Example 1.19, (S)-(5-(3,5-difluorophenyl)-4,5-dihydro-1H-pyrazol-1-yl)(6-(pyridin-2-yl)-2,6-diazaspiro[3.3]heptan-2-yl)methanone, TFA salt], the EC50 amounted to 3450 nM.
For the molecule `CS(=O)(=O)N1CCC2(CC1)CN(C(=O)N1N=CC[C@H]1c1cc(F)cc(F)c1)C2` [Example 1.20, (S)-(5-(3,5-difluorophenyl)-4,5-dihydro-1H-pyrazol-1-yl)(7-(methylsulfonyl)-2,7-diazaspiro[3.5]nonan-2-yl)methanone], the concentration for a half-maximal effect (EC50) stood at 1320 nM.
Under `CC(C)OC1CN(C(=O)N2N=CC[C@H]2c2cc(F)cc(F)c2)C1` [Example 1.24, (S)-(5-(3,5-difluorophenyl)-4,5-dihydro-1H-pyrazol-1-yl)(3-isopropoxyazetidin-1-yl)methanone] stands 29.9 nM.
